From patent US20250034165A1, “COMPOUND CONTAINING CYCLOALKYL OR HALOALKYL” (CHIA TAI TIANQING PHARMACEUTICAL GROUP CO., LTD., priority 2021, published 2025) come the findings set out here.

Read-outs that look alike come from different tables or passages of the source.

The target in one data set is EGFR (WT) (Homo sapiens (Human), UniProt P00533). Put plainly: Inhibitory activity for EGFR (WT) kinase. The format is biochemical. As to conditions: ATP 5 μM. How it is done:
A 50 ng/μL EGFR (WT, Carna) stock solution was diluted with a kinase buffer (50 mM HEPES, 10 mM MgCl2, 2 mM DTT, 1 mM EGTA, 0.01% Tween 20), and 6 μL of 1.67× working solution at 0.005 ng/μL (final concentration: 0.003 ng/μL) was added to each well. Different compounds dissolved in DMSO were added to the wells using a nanoliter pipettor, resulting in the final concentrations of the compounds of 100 nM to 0.0244 nM (4-fold gradient for 7 concentrations in total), and blank control wells (without enzyme) and negative control wells (with enzyme, plus vehicle DMSO) were set, 2 replicate wells for each concentration. After enzyme was reacted with the compound or vehicle for 30 min, 5×ATP at 25 μM (final concentration: 5 μM, Sigma) prepared with a kinase buffer was mixed with 5× substrate at 0.5 μM (final concentration: 0.1 μM, ULight-poly GT, PerkinElmer) at a ratio of 1:1 (v:v), and the mixture was added to each well at 4 μL/well. After being sealed with a film, the plate was incubated at room temperature for 2 h, and then 5 μL of 4×EDTA at 40 mM (final concentration: 10 mM) was added to each well. After the plate was incubated for 5 min at room temperature, 5 μL of 4× detection reagent at 8 nM (final concentration: 2 nM, Eu-anti-phospho-tyrosine antibody, PerkinElmer) was added to each well. After being incubated at room temperature for 1 h, the plate was read using a PerkinElmer Envision multi-mode microplate reader (excitation: 320 nm, emission: 665 nm), and IC50 was calculated by four-parameter fitting.

Data set [1] deals with EGFR (d746-750 (d19)/T790M) (Homo sapiens (Human), UniProt P00533, DEL746-750/T790M). As to the kind of experiment: Inhibitory activity for EGFR (d746-750 (d19)/T790M) kinase. It counts as biochemical. The note with it: ATP 5 μM. In short, it runs like this: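 Recombinant EGFR d746-750/T790M (0.003 ng/μL final) preincubated 30 min with compound (10 to 0.0024 nM, 4-fold steps), then 5 μM ATP and 0.1 μM ULight-poly GT added for 2 h at room temperature. EDTA stop, Eu-anti-phosphotyrosine TR-FRET read (665 nm); IC50 by four-parameter fit.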
Sequence of EGFR (d746-750 (d19)/T790M) (P00533 other isoform, or with tags, fused parts or gaps T790M/del 1-668/del 746-750 limits assumed): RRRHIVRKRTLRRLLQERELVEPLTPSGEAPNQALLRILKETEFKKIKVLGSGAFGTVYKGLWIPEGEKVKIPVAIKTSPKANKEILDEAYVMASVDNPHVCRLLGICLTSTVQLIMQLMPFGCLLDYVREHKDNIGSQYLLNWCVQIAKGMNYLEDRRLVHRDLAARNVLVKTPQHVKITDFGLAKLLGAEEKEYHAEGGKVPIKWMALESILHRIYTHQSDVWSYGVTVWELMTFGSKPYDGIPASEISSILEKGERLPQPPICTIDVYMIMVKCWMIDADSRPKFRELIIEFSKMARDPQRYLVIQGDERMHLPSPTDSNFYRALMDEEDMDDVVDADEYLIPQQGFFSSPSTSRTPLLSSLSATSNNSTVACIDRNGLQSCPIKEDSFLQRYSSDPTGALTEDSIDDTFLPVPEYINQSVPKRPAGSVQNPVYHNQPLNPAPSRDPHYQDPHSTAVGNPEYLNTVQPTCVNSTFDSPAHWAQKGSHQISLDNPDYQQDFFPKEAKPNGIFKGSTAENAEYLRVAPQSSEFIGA

Data set [2] can be described thus: In vivo pharmacokinetics in ICR mice. As to conditions: for MRT last: read-out: MRT(0-t); for half-life: read-out: T½ (converted); for bioavailability: 10 mg/kg. A digest of the protocol: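 ICR mice (18–20 g, 9 per group, fasted 12 h) received 10 mg/kg of compound intragastrically. Orbital blood was taken from 0 min to 24 h and EDTA-K2 plasma was prepared. Plasma was precipitated with acetonitrile containing diazepam as internal standard and analysed by LC/MS/MS.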

The next data set relates to NCI-H1975(L858R T790M). Put plainly: Nude mouse subcutaneous xenograft tumor model of NCI-H1975 cells. It counts as in vivo, nude mice. As to conditions: once a day; for Tumor growth inhibition % (tumor weight, d 18) / Tumor growth inhibition % (volume, d 15): 17 days. An excerpt: Evaluation on drug effect on nude mouse subcutaneous xenograft tumor model of NCI-H1975 cells: NCI-H1975 cells were inoculated subcutaneously in the right axilla of SPF-grade female nude mice (source: Jiangsu Huachuang Sino Pharmaceutical Technology Co., Ltd.) at 1×10^6 cells/mouse. When the mean tumor volume reached about 200 mm^3, the animals were grouped.
The day of grouping was defined as day 0, and intragastric administration was started on day 0 and performed once a day. The tumor volume was measured 2-3 times a week, meanwhile, the mice were weighed and the data were recorded; the general behavior of the mice was observed and recorded every day. After the experiment was completed, the tumors were removed, weighed, and photographed.
Tumor volume TV (mm^3)=½×(a×b^2),
Relative tumor volume RTV=TVt/TV0,
Relative tumor proliferation rate T/C (%)=(TRTV/CRTV)×100%,
Tumor growth inhibition rate TGI (%)=(1−TW/TW0)×100%;

Where [3] appears, read: mouse, plasma, 1 mg/kg, IV, read-out: AUC(0-t).
The mark [4] stands for this setting: mouse, plasma, PO, 10 mg/kg intragastric.
Setting [5] is: mouse, plasma, PO, 10 mg/kg intragastric, read-out: AUC(0-t).
[6] abbreviates: mouse, plasma, PO, 10 mg/kg intragastric, read-out: Cmax.
Setting [7] is: mouse, plasma, PO, 10 mg/kg intragastric, read-out: Tmax.

Sequence of EGFR (WT) (P00533 25-1210): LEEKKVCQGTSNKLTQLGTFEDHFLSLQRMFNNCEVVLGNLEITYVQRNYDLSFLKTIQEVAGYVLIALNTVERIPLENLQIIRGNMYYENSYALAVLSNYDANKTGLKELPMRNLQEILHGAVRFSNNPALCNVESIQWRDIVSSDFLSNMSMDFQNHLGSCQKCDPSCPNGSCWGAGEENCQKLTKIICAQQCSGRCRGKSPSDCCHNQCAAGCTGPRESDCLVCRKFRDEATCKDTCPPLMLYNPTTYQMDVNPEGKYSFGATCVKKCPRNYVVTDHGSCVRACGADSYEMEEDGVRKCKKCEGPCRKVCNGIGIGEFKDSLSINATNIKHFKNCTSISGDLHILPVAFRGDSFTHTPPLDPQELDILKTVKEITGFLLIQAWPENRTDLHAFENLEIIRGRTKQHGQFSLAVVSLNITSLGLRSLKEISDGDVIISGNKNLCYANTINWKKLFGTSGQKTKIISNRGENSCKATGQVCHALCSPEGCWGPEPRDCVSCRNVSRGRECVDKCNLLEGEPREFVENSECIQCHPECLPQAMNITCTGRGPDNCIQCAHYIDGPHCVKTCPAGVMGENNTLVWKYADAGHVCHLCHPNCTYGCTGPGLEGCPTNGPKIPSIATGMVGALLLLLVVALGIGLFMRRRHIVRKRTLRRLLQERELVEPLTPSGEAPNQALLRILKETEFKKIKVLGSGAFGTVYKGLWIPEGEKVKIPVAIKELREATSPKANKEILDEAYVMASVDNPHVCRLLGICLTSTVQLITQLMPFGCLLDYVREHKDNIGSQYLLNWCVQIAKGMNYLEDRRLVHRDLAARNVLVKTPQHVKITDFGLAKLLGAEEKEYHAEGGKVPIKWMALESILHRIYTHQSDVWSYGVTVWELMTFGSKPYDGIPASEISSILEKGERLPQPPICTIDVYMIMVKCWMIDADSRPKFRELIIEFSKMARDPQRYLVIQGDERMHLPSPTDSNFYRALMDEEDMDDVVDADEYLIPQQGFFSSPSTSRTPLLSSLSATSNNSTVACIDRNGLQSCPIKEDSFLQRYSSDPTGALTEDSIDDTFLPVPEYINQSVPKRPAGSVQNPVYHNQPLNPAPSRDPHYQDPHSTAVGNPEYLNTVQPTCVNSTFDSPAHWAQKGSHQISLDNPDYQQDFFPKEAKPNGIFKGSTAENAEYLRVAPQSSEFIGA

Turning to `Cc1cc2cc(n1)-c1cnn(C)c1OCCC[C@@H](C1CC1)CN1/C(=N/C2=O)Nc2ccc(C=CCCN(C)C)cc21` [Example 24], the IC50 at EGFR (WT) stood at 1.1 nM; in data set [1], 0.016 nM.

As for `Cc1cc2cc(n1)-c1cnn(C)c1OCCC[C@@H](C1CC1)CN1/C(=N/C2=O)Nc2cc(NC3(C(F)(F)F)COC3)ccc21` [Example 88], the IC50 was found to be 6 nM on EGFR (WT) and 0.044 nM in data set [1].

Take `Cc1cc2cc(n1)-c1cnn(C)c1OC[C@H](C1CC1)CCCn1c(nc3ccc(NC4COC4)cc31)NC2=O` [Example 59]: the IC50 against EGFR (WT) was determined as 5.9 nM; in data set [1] it was 0.04 nM.

`C[C@H](Nc1ccc2c(c1)N/C1=N\C(=O)c3cc(F)nc(c3)-c3cnn(C)c3OCCC[C@@H](C3CC3)CN12)C(F)(F)F` [Example 9]: the IC50 is 0.56 nM on EGFR (WT) and 0.28 nM in data set [1].

In the case of `Cc1cc2cc(n1)-c1cnn(C)c1OCCC[C@@H](C1CC1)CN1/C(=N/C2=O)Nc2cc(N[C@H]3CC[C@@H](N(C)C)CC3)ccc21` [Example 26], the figures for the IC50 (on EGFR (WT); in data set [1]) were 0.24 nM and 0.011 nM, respectively.

Regarding `Cc1cc2cc(n1)-c1cnn(C)c1OC[C@H](C1CC1)CCCn1c(nc3cc(NC4COC4)ccc31)NC2=O` [Example 60], the IC50 was found to be 8 nM on EGFR (WT) and 0.039 nM in data set [1].

On EGFR (WT), `Cc1cc2cc(n1)-c1cnn(C)c1OCCC[C@@H](C1CC1)CN1/C(=N/C2=O)Nc2cc(N[C@H](C)C3COC3)ccc21` [Example 39] had an IC50 of 0.61 nM. Moreover, in data set [2] (IV), the “AUC(0-t)” value stood at 261 ng·h/mL, the “AUC(0-∞)” value was determined as 262 ng·h/mL, the CLz was determined as 63.5 mL/min/kg and the “MRT(0-t)” value is recorded as 0.61 h. The T½ in data set [2] (IV) worked out at 1.74 h. The “F (%)” value in data set [2] (PO vs IV) was found to be 118.35%. Also, in data set [2] (PO, 10 mg/kg intragastric), the “AUC(0-t)” value came to 3093 ng·h/mL, the “AUC(0-∞)” value was found to be 3096 ng·h/mL, the Cmax was determined as 488 ng/mL and the “MRT(0-t)” value stood at 3.84 h. Further, in data set [2] (PO, 10 mg/kg intragastric), the time to peak (Tmax) is 0.50 h and the T½ turned out to be 2.33 h. In the data set on NCI-H1975(L858R T790M) (10 mpk (i.g), 14 days), the “Tumor growth inhibition % (tumor weight, d 14)” value is given as 65.1% (tumor and the “Tumor growth inhibition % (volume, d 12)” value amounted to 70.2%. In data set [1], this molecule gave an IC50 of 0.012 nM.

For the molecule `Cc1cc2cc(n1)-c1cnn(C)c1OCCC[C@@H](C1CC1)CN1/C(=N/C2=O)Nc2cc(N[C@H]3CC[C@H](N(C)C)CC3)ccc21` [Example 25], the figures for the IC50 (against EGFR (WT); in data set [1]) were 0.049 nM and 0.011 nM, respectively. Moreover, the “Tumor growth inhibition % (tumor weight, d 18)” value in the data set on NCI-H1975(L858R T790M) (5 mpk (i.g)) is given as 31.4% (tumor; in the data set with NCI-H1975(L858R T790M) (10 mpk (i.g)) it was 75.8% (tumor. Besides, the results for the “Tumor growth inhibition % (volume, d 15)” value with NCI-H1975(L858R T790M) (5 mpk (i.g)) and in the data set on NCI-H1975(L858R T790M) (10 mpk (i.g)) were 22.5% (volume, and 72.5% (volume,, respectively.

For the molecule `Cc1cc2cc(n1)-c1cnn(C)c1OCCC[C@@H](C1CC1)CN1/C(=N/C2=O)Nc2cc(NC3(C)COC3)ccc21` [Example 29], the CLz in data set [2] (IV) stood at 19.7 mL/min/kg. Besides, the AUC(0-inf) was 850 ng·h/mL in data set [2] (mouse, plasma, 1 mg/kg, IV) and 3640 ng·h/mL in data set [2] (setting [4]). For the same molecule, the area under the curve AUC(0-t) in data set [2] (setting [3]) is 845 ng·h/mL; in data set [2] (setting [5]) it was 3620 ng·h/mL. The MRT last in data set [2] (mouse, plasma, 1 mg/kg, IV) turned out to be 1.1 h; in data set [2] (setting [4]), 5.99 h. For the same molecule, the half-life in data set [2] (mouse, plasma, 1 mg/kg, IV) was 1.65 h; in data set [2] (setting [4]), 3.06 h. For the same molecule, in data set [2] (mouse, plasma, PO vs IV), the bioavailability is 42.9%. For the same molecule, the Cmax in data set [2] (setting [6]) was 553 ng/mL. Also, the Tmax in data set [2] (setting [7]) turned out to be 0.5 h. For the same molecule, the “Tumor growth inhibition % (tumor weight, d 18)” value with NCI-H1975(L858R T790M) (5 mpk (i.g)) was 41.7% (tumor weight,; in the data set with NCI-H1975(L858R T790M) (10 mpk (i.g)), 83.9% (tumor. Besides, the “Tumor growth inhibition % (volume, d 15)” value in the data set on NCI-H1975(L858R T790M) (5 mpk (i.g)) is given as 40.0% (volume, d 15); in the data set on NCI-H1975(L858R T790M) (10 mpk (i.g)), 75.0% (volume,. In data set [1], this molecule yielded an IC50 of 0.0089 nM.

`Cc1cc2cc(n1)-c1cnn(C)c1OCCC[C@@H](C1CC1)CN1/C(=N/C2=O)Nc2ccc(NCCN(C)C)cc21` [Example 28] had a CLz in data set [2] (IV) of 48.8 mL/min/kg. For the same molecule, the AUC(0-inf) in data set [2] (mouse, plasma, 1 mg/kg, IV) worked out at 341 ng·h/mL; in data set [2] (setting [4]), 965 ng·h/mL. Moreover, the figures for the AUC(0-t) in data set [2] (setting [3]) and in data set [2] (setting [5]) were 336 ng·h/mL and 938 ng·h/mL, respectively. Also, the MRT last in data set [2] (mouse, plasma, 1 mg/kg, IV) was 3.96 h; in data set [2] (setting [4]), 7.72 h. Also, the half-life is 4.64 h in data set [2] (mouse, plasma, 1 mg/kg, IV) and 4.29 h in data set [2] (setting [4]). Moreover, the bioavailability in data set [2] (mouse, plasma, PO vs IV) is 27.9%. Also, the Cmax in data set [2] (setting [6]) amounted to 74.5 ng/mL. For the same molecule, the Tmax in data set [2] (setting [7]) stood at 6 h. This molecule came in with an IC50 in data set [1] of 0.0072 nM.

One may read the IC50 as the concentration at which inhibition is half-maximal. What is called AUC(0-t) is the area under the concentration-time curve up to a stated or last time point. A word on the Cmax: it is the maximum level reached in the sampled fluid or tissue. A word on the Tmax: it is the time from dosing to the highest level. In general, AUC(0-inf) refers to total exposure, with the tail of the curve extrapolated. A word on the bioavailability: it is the share of a dose that reaches the circulation, judged against a reference dose that is usually intravenous.
